Measured values reported in patent US20170202826A1, “DOSAGE FORMS OF APIXABAN” (Pfizer Inc., priority 2009, published 2017).

Experiment: Aqueous solubility of apixaban
Format: physicochemical
Conditions: aqueous medium, aqueous buffer; room temperature, pH 6.8

solubility: < 1 µg/mL
SMILES: COc1ccc(-n2nc(C(N)=O)c3c2C(=O)N(c2ccc(N4CCCCC4=O)cc2)CC3)cc1 [apixaban, 1-(4-methoxyphenyl)-7-oxo-6-[4-(2-oxopiperidin-1-yl)phenyl]-4,5,6,7-tetrahydro-1H-pyrazolo[3.4-c]pyridine-3-carboxamide]
